Here are results for 1 compound from US9618507B2, “Methods of treating rheumatoid arthritis” (Betanien Hospital, priority 2014, dated 2017).

Like-named read-outs stand apart in the source and are kept apart here. Where a SMILES comes first, the peptide text is derived from it. [ ]: non-standard residue; d: D form. dPhe(4-Cl) = N[C@H](Cc1ccc(Cl)cc1)C(=O)O; d2Nal = N[C@H](Cc1ccc2ccccc2c1)C(=O)O; dCit = NC(=O)NCCC[C@@H](N)C(=O)O; d3Pal = N[C@H](Cc1cccnc1)C(=O)O

The subject of series [1] is gonadotropins, oestradiol, testosterone, cortisol. Kind of series: Example 2: hormones (gonadotropins, oestradiol, testosterone, cortisol) in high gonadotropin patients. Type of series: in vivo, human. An excerpt:
Non-competitive immunofluorometric assays were used for the quantitative determination of serum LH and FSH (Dissociation Enhanced Lanthanide Fluoroimmunoassay [DELFIA] kit, Turku, Finland). A competitive immunofluorometric assay was used for the determination of serum oestradiol (DELFIA kit, Turku, Finland). A competitive radioimmunoassay was used for the quantitative determination of serum testosterone (Orion Diagnostica. Espoo, Finland). A competitive Iuminoimmunoassay was used for the quantitative determination of serum cortisol (Immulite 2000, California, USA).

Series [2] has as its system RA patients with high gonadotropin levels. Kind of series: Example 2: adverse events in high gonadotropin patients. Format: in vivo, human. How it is done: (§1) The intention-to-treat population was predefined as all randomised patients who received any study-drug injections. Missing values were <1% and could, as predefined, be imputed with the last-observation-carried-forward. The assumptions of normality needed for analyses were approximately valid. All statistical tests were two-sided (α=0.05) and performed with Stata 12 and StatXact 9. Analyses were performed by an offsite statistician who received locked databases from blinded investigators and laboratories, and the allocation key from the offsite central office.

The test system is the same in series [3]. Kind of series: Example 2: AGRA post hoc analyses in patients with high gonadotropin levels, disease activity (DAS28-CRP, ACR, EULAR). Format: in vivo, human.
Text: Post hoc analyses is described herein.
Key inclusion criteria for AGRA were males or females aged ≧18 years with RA that had been diagnosed on the basis of the American College of Rheumatology (ACR) 1987 revised criteria (Arnett F C, et al., Arthritis Rheum 1988; 31:315-24); with active, and moderate or severe disease defined as a Disease Activity Score for 28-joint counts based on C-reactive protein (Wells G, et al., Ann Rheum Dis 2009; 68:954-60) (DAS28-CRP) >3.2 and at least two of the following criteria: ≧6 painful joints, ≧3 swollen joints, ESR ≧20 mm/h, and a C-reactive protein ≧10 mg/L). Prednisolone ≦7.5 mg/day was permitted if stable for at least 4 weeks prior to baseline; NSAIDs were permitted if stable for at least 2 weeks prior to baseline; and disease-modifying anti-rheumatic drugs (DMARDs) were permitted if stable for at least 8 weeks prior to baseline. Tumour necrosis factor-α (TNF-α) inhibitor or other biological agents were not permitted during the trial or within 4 weeks prior to inclusion. Infliximab/adalimumab was not permitted at least 3 months prior to inclusion; Rituximab was not permitted at least 6 months prior to inclusion. Intramuscular, intra-articular or intravenous corticosteroids; any hormone replacement therapy; or oral contraception was not permitted during the trial or within 4 weeks prior to inclusion.
In these post hoc analyses, a subgroup of AGRA patients with high gonadotropin levels were examined. There is no established cut-off for high LH and/or FSH. Therefore, levels above the median were defined as high (e.g., LH>17.3 IU/L and FSH>34.6 IU/L).
as §1

For another series, the system named is CRP. Conditions: high gonadotropin patients, by day 15. How it is done: The protocol-specified primary and secondary intention-to-treat endpoints of the original AGRA trial were analyzed in these post hoc analyses. The primary endpoint was the baseline-adjusted between-group difference in DAS28-CRP (Wells et al., supra) by day 5b. […] Multiplex technology (Luminex Inc., Austin, Tex.) measured these serum cytokines using high-sensitivity assays (sensitivities <0.5 pg/mL, allowing the detection of very low concentrations of cytokines) and identical lots of critical reagent of negligible cross-reactivity <2%, according to manufacturers' instructions (Bio-Rad, Hercules, Calif.). […]
The original power calculation is previously reported (Kass A S, et al., Scand J Rheumatol Epub ahead of print 1 Nov. 2013). Baseline-adjusted between-group differences for all continuous endpoints were assessed with the use of analysis-of-covariance using outcome measurements at predefined time points as response variables, and treatment and baseline measurements as covariates. […]

[4] abbreviates: high gonadotropin patients, by day 5, placebo 0%.

As to `CC(=O)N[C@H](Cc1ccc2ccccc2c1)C(=O)N[C@H](Cc1ccc(Cl)cc1)C(=O)N[C@H](Cc1cccnc1)C(=O)N[C@@H](CO)C(=O)N[C@@H](Cc1ccc(O)cc1)C(=O)N[C@H](CCCNC(N)=O)C(=O)N[C@@H](CC(C)C)C(=O)N[C@@H](CCCNC(=N)N)C(=O)N1CCC[C@H]1C(=O)N[C@H](C)C(N)=O` [cetrorelix] (Ac-[d2Nal][dPhe(4-Cl)][d3Pal]SY[dCit]LRP[dA]-NH2), in series [1], the “Cortisol change compared with placebo (words)” value is on record as “significantly decreased”, the “gonadotropins change compared to placebo” value is reported as “significantly reduced”, the “oestradiol change compared to placebo” value was “significantly reduced” and the “testosterone change compared to placebo” value was “significantly reduced”. Besides, the “gonadotropin levels, onset” value in series [1] (by day 2) is listed as “decreased”. Moreover, in series [1] (by day 5, 95% CI 10.5 to 95.8, P=0.016), the Cortisol between-group difference amounted to 53.1 nmol/L. The “Cortisol change compared with placebo (words)” value in series [1] (listed as Cetrorelix) is recorded as “significantly reduced”. Further, in series [2] (N = 27), the “Adverse events: Headache” value was 2 (7.4) no. %, the “Adverse events: Injection site discomfort” value is 2 (7.4) no. % and the “Adverse events: Nausea” value is on record as 0 no. %. For the same compound, the Adverse events severity entry in series [2] (high gonadotropin patients) was “mild”. Also, in series [3] (FIG. 5B-E), the “reductions of DAS28-CRP and cytokines compared to placebo, high gonadotropin groups (N=53) versus the rest of the AGRA population (N=46)” value is “greater reductions”. In series [3] (setting [4]), the “patients achieving DAS28-CRP<2.6” value was 15%, the “patients achieving DAS28-CRP≦3.2” value is recorded as 22% and the “patients achieving EULAR 'Good-Responses'” value stood at 19%. For the same compound, the “patients achieving ACR20 responses” value in series [3] (high gonadotropin patients, by day 5, placebo 19%) is reported as 44%. The “DAS28-CRP change by day 5” value in series [3] (high gonadotropin patients, cetrorelix N=27, 95% CI −1.3 to −0.67, placebo −0.40) is reported as −1.0. Further, the “DAS28-CRP baseline-adjusted between-group difference” value in series [3] (high gonadotropin patients, day 5, 95% CI 0.13 to 0.93, P=0.010) was found to be 0.53. Moreover, in series [3] (high gonadotropin patients, numbers too small for valid conclusions), the “ACR50 and ACR70 responses compared with placebo” value was “More patients reached ACR50 and ACR70 responses”. Further, the “DAS28-CRP reduction, prednisolone users (N=13) vs non-users (N=14)” value in series [3] (patients who received cetrorelix, P=0.73) is “similar”. Moreover, the CRP between-group difference in the series with CRP (95% CI 0.22 to 10.7, P=0.042) turned out to be 5.45 mg/L. For the same compound, in the series with CRP (placebo 0.85), the CRP change was -5.1 mg/L.
